PubChem BioAssay (NCI)
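Tested at 5 concentrations; 48 h exposure; 96-well plates; endpoints linearly interpolated, else capped at highest concentration. GI50: concentration for 50% inhibition of growth. Definition used: TGI = concentration required for complete inhibition of growth.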

Tests used:
Assay in all cases: NCI anticancer screen, dose series, 48 h
OVCAR-5 ovarian = system: OVCAR-5 ovarian
BT-549 breast = system: BT-549 breast
CCRF-CEM leukemia = system: CCRF-CEM leukemia
DU-145 prostate = system: DU-145 prostate
HS 578T breast = system: HS 578T breast
MDA-MB-435 = system: MDA-MB-435
NCI/ADR-RES ovarian = system: NCI/ADR-RES ovarian
SNB-78 CNS = system: SNB-78 CNS

O=C(N/N=C/c1cc(Cl)cc(Cl)c1[O-])c1ccccc1O.O=C(N/N=C/c1cc(Cl)cc(Cl)c1[O-])c1ccccc1O.[Ni+2]
TGI (OVCAR-5 ovarian): 1.09 µM

O=C(NC1CCN(Cc2ccccc2)CC1)c1cc2nc(-c3ccc(Cl)s3)cc(C(F)(F)F)n2n1
GI50 (BT-549 breast): > 100 µM
TGI (BT-549 breast): > 100 µM
GI50 (CCRF-CEM leukemia): > 100 µM
TGI (CCRF-CEM leukemia): > 100 µM
GI50 (DU-145 prostate): > 100 µM
TGI (DU-145 prostate): > 100 µM
GI50 (HS 578T breast): 10.9 µM
TGI (HS 578T breast): > 100 µM
GI50 (MDA-MB-435): > 100 µM
TGI (MDA-MB-435): > 100 µM
GI50 (NCI/ADR-RES ovarian): > 100 µM
TGI (NCI/ADR-RES ovarian): > 100 µM

N#C[S-].[Nd+3].c1ccc(-c2ccccn2)nc1.c1ccc(-c2ccccn2)nc1.c1ccc(-c2ccccn2)nc1
GI50 (SNB-78 CNS): 94.2 µM
TGI (SNB-78 CNS): > 100 µM
